One data set addresses T1, UGT2B10 (Homo sapiens, UniProt P36537).
T1 sequence (P36537 whole entry): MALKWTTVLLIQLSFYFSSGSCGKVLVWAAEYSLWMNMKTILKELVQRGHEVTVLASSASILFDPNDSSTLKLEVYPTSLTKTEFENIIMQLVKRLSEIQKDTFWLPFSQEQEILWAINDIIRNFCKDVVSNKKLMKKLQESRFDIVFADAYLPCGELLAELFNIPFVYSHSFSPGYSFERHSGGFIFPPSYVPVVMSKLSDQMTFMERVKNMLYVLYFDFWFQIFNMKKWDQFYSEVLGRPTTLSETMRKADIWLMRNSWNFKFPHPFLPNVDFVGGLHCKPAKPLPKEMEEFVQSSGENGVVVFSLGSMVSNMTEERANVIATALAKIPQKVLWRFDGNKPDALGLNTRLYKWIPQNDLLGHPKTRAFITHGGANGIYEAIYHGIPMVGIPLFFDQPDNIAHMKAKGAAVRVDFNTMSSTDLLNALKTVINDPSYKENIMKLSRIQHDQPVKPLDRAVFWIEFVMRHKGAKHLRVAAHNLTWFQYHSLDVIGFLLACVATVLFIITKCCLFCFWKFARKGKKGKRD
Kind of data set: Inhibition of human recombinant UGT2B10 at 25 uM by fluorescence spectroscopy. Also noted: scale not given: the % may be the effect or the level left. As to conditions: read-out: Activity.

For a further data set, the target named is T2, UGT2B15 (Homo sapiens, UniProt P54855).
T2 sequence (P54855 whole entry): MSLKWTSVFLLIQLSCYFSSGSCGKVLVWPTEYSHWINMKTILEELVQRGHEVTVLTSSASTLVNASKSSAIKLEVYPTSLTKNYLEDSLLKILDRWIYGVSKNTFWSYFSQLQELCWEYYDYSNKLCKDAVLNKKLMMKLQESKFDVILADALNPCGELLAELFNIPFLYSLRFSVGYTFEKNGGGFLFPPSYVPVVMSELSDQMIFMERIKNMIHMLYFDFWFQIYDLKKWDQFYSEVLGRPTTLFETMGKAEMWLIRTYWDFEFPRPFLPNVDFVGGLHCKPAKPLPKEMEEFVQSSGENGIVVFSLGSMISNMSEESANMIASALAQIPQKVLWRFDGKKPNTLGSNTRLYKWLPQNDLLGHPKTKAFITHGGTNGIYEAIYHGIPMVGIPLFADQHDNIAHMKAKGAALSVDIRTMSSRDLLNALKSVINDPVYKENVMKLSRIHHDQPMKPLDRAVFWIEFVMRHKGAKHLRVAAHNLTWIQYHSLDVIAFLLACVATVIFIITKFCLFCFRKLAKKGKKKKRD
Kind of data set: Inhibition of human recombinant UGT2B15 at 25 uM by fluorescence spectroscopy. Also noted: scale not given: the % may be the effect or the level left. The conditions noted are these: read-out: Activity.

Data set [1] deals with T3, UDP-glucuronosyltransferase 2B17 (Homo sapiens, UniProt O75795).
T3 sequence (O75795 whole entry): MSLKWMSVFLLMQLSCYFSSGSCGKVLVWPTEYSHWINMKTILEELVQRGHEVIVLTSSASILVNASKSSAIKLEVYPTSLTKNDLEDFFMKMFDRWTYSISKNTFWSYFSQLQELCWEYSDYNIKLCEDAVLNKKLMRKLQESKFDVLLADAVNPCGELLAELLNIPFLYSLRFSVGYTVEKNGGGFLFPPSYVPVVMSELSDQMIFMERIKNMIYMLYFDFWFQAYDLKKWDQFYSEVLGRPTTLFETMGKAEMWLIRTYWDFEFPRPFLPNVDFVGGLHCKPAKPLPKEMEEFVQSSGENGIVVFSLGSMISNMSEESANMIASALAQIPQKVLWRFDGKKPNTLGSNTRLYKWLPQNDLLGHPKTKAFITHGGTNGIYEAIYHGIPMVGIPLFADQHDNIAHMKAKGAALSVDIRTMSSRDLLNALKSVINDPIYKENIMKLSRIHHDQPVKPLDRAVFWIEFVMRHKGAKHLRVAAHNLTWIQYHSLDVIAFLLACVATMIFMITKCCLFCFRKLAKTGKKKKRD
Kind of data set: Inhibition of human recombinant UGT2B17 assessed as reduction of scopoletin glucuronidation.

The next data set deals with T4, UGT2B4 (Homo sapiens, UniProt P06133).
T4 sequence (P06133 whole entry): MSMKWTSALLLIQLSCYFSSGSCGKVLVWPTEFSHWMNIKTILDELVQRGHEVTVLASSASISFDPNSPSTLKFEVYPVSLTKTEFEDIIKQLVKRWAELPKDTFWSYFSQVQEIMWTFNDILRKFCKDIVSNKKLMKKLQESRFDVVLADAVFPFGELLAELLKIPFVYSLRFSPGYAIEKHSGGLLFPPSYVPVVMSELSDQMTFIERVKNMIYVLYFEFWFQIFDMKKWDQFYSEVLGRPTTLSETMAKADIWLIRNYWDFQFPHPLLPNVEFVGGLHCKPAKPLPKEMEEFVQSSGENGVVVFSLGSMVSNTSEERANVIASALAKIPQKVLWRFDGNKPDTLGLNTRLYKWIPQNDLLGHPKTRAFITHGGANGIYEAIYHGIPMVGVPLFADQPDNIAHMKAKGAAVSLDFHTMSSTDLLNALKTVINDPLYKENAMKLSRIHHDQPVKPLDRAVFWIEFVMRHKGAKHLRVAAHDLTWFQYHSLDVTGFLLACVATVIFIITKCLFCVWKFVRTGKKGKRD
The data set can be described thus: Inhibition of human recombinant UGT2B4 at 25 uM by fluorescence spectroscopy. Also noted: scale not given: the % may be the effect or the level left. The conditions noted are these: read-out: Activity.

In the next data set the target is T5, UGT2B28 (Homo sapiens, UniProt Q9BY64).
T5 sequence (Q9BY64 whole entry): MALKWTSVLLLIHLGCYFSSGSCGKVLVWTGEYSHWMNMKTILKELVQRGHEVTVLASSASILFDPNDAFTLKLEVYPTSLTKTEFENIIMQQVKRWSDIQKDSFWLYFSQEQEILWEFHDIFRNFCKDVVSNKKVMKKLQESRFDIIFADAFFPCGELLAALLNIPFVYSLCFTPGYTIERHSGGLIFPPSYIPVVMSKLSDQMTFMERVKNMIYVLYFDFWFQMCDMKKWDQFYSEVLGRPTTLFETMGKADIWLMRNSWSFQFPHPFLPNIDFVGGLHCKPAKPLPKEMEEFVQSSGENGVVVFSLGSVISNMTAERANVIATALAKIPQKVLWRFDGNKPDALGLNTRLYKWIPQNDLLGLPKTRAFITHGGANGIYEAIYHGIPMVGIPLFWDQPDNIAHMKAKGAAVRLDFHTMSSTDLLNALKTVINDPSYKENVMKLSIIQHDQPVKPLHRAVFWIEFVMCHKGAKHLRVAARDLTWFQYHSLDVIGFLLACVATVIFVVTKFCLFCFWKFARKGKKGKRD
Kind of data set: Inhibition of human recombinant UGT2B28 at 25 uM by fluorescence spectroscopy. Also noted: scale not given: the % may be the effect or the level left. The conditions noted are these: read-out: Activity.

A further data set has as its target T6, UGT2B17 (Homo sapiens, UniProt O75795).
T6 sequence (O75795 whole entry): T3 sequence (O75795 whole entry)
The data set can be described thus: Inhibition of human recombinant UGT2B17 at 25 uM by fluorescence spectroscopy.

Structures are written as SMILES. pKi: −log10 of the molar value.

Take `CC1(C)CCC[C@]2(C)[C@@H]([C@@H](O)c3ccccc3)[C@H]3CC[C@@H]2[C@H]31`: the activity at 25 µM on UGT2B10, on UGT2B15, on UGT2B4 and at UGT2B28 was 30% each time. Moreover, in data set [1], the pKi (usually the negative decadic logarithm of the Ki, by convention in mol/L) is 4.66. Besides, on UGT2B17, the inhibition (commonly the share of the control response that was lost under treatment) at 25 µM was 70%.

The values above are taken from ChEMBL document CHEMBL1143068, “Isoform-selective inhibition of the human UDP-glucuronosyltransferase 2B7 by isolongifolol derivatives” (J Med Chem, 2007).
